The values that follow come from publication PMC11466185, “Mechanisms and efficacy of small molecule latency-promoting agents to inhibit HIV reactivation ex vivo” (JCI Insight, 2024).

The subject of data set [1] is HIV transcripts (TAR, LLTR, Pol, PolyA, TatRev). The data set can be described thus: Cell-associated HIV transcripts (RT-ddPCR) 6 days after anti-CD3/CD28 activation of PBMCs from ART-suppressed PWH. The class given is cell-based. The following applies: DMSO+CD3/28 = 1, Fig 4B, C and D. The procedure:
(§1) Next, we evaluated the ability of the candidate LPAs to sustain the inhibitory effects during a prolonged ex vivo culture. To this end, PBMCs were cultured in the presence of individual drugs in DMSO or in DMSO alone as control, activated (anti-CD3/CD28), and harvested after 6 days. […] However, we decided to test the drug on day 6 because extra cells were available from some study participants.
Each drug was tested in PBMCs from at least 6 ART-suppressed study participants (except for KRIBB11, n = 5). PBMCs were aliquoted into wells at 6 × 10^6 cells/well. After activation, the cells were cultured with antiretrovirals in the presence of individual drugs in DMSO or DMSO alone as control. All conditions were tested in the presence of CD3/28 T cell–activating beads, except for the unactivated DMSO condition. After 6 days, total cellular RNA was extracted, and the progression through different stages of HIV transcription was quantified by measuring the levels of initiated (TAR), 5′ elongated (LLTR), midtranscribed/unspliced (Pol), completed (PolyA), and multiply spliced (TatRev) HIV transcripts. (A) The levels of all HIV transcripts were normalized to 1 μg of total cellular RNA and expressed as a percentage of the activated DMSO control (% of activated DMSO). Medians are shown as well as the individual values per study participant in different colors. (B–D) The effect of each drug on HIV transcriptional progression after activation was analyzed by the ratio of one HIV transcript to another. Ratios are independent of HIV infection frequency or normalization to cell numbers. Shown are the proportion of (B) all HIV transcripts that are elongated (LLTR/TAR), (C) elongated HIV transcripts that are completed (PolyA/LLTR), and (D) completed transcripts that are multiply spliced (TatRev/PolyA). Medians and IQR are presented, along with the individual values per study participant in different colors. P values were calculated using Wilcoxon’s signed-rank test: *P < 0.05.
PBMCs were isolated from fresh venous blood from 16 ART-suppressed HIV-infected study participants using Ficoll density gradient centrifugation. The cells were seeded at 6 × 10^6 cells/well and cultured with antiretrovirals (nevirapine and indinavir) to prevent new infection. On the next day, PBMCs were activated with anti-CD3/CD28–coated beads (Invitrogen) in the presence of 20 U/mL IL-2 and individual drugs in DMSO or DMSO alone as a control. Since we were limited in the PBMC yield per study participant, different study participants were used for different experiments (such as the initial screen, dose response, different time points, and studies in activated vs. unstimulated cells). In addition, the yields of PBMCs were sometimes insufficient to test all drugs for a given question or experiment.
(§2) For quantification of cell-associated HIV transcripts, PBMCs were harvested either after 24 hours or after 6 days. The cell viabilities were measured by trypan blue staining; then the cells were pelleted by centrifuging at 300g for 6 minutes and stored at –80°C. For quantification of virion-associated HIV RNA, cell culture supernatant was collected from 6 × 10^6 PBMCs that were treated and activated for 6 days as described above. Residual cells and cellular debris were subsequently removed from the supernatant by differential centrifugation (300g for 6 minutes, then 20,000g for 10 minutes), and the supernatant was stored at –80°C.
Total cellular DNA and RNA were extracted in parallel using Trireagent (Molecular Research Center) according to the manufacturer’s instructions, except for study participants 2147 and 2461 (Figure 4), for whom DNA and RNA were extracted using the QIAGEN AllPrep DNA/RNA/miRNA Universal Kit with on-column DNase I treatment of the RNA and the manufacturer’s modification to enhance recovery of short transcripts.

Data set [2] has as its system PBMCs. The data set is classed as cell-based, human. The settings on record: 6 days after αCD3/28 activation, each row one participant. The protocol:
as §1, §2
A) After six days, the viability was measured by trypan blue staining and then normalized to the levels of the activated DMSO (% of activated DMSO). Bars indicate medians and different colors indicate individual study participants. B-F) Each drug was tested in PBMCs from at least six ART-suppressed study participants (except for KRIBB11, n=5) and the PBMCs were aliquoted into wells at 6x10^6 cells/well. After activation, the cells were cultured with antiretrovirals in the presence of individual drugs in DMSO or DMSO alone as control. After six days, total RNA was extracted and the progression through different stages of HIV transcription was (1 picture or pasted object on this page, not shown here)

Where “and” joins values, the source holds several entries; their conditions need not be identical. Equal values may be shown once. Read-outs that look alike come from different tables or passages of the source.

For the compound `COc1ccc(-c2cc(=O)c3c(O)cc(O)c(-c4cc(-c5cc(=O)c6c(O)cc(O)cc6o5)ccc4OC)c3o2)cc1` [isoginkgetin], the LLTR/TAR in data set [1] (participant 150b) stood at 0.8798; in data set [1] (participant 1379), 1.373; in data set [1] (participant 2027) it was 0.7253; in data set [1] (participant 2147a), 0.06726; in data set [1] (participant 2161) it was 0.6564; in data set [1] (participant 2256) it was 1.751. The LLTR/TAR in data set [1] (participant 2461) is 1.166; in data set [1] (participant 2747), 0; in data set [1] (participant 5557), 0.8133. The PolyA/LLTR in data set [1] (participant 150b) was determined as 1.092; in data set [1] (participant 1379) it was 0.4663; in data set [1] (participant 2027), 0.8811; in data set [1] (participant 2147a), 1.437; in data set [1] (participant 2161), 0.57; in data set [1] (participant 2256), 0.07578. Also, the PolyA/LLTR is listed as 0.2875 in data set [1] (participant 2461) and 0.9591 in data set [1] (participant 5557). In addition, the TatRev/PolyA in data set [1] (participant 150b) is listed as 1.01; in data set [1] (participant 2147a), 0.8892; in data set [1] (participant 5557), 0.5795. Besides, the “Cell viability (DMSO αCD3/28 = 100)” value in data set [2] (25μM) is 120.3 and 106.36 and 93.99 and 112.22 and 91.65 and 74.9 and 87.5 and 124.6.
Regarding `C=CCNC1=C2C[C@@H](C)C[C@H](OC)[C@H](O)[C@@H](C)/C=C(\C)[C@H](OC(N)=O)[C@@H](OC)/C=C\C=C(/C)C(=O)NC(=CC1=O)C2=O` [tanespimycin], the LLTR/TAR is reported as 1.555 in data set [1] (participant 150b); 1.931 in data set [1] (participant 1379); 0.63 in data set [1] (participant 1713); 1.469 in data set [1] (participant 2147b); 1.634 in data set [1] (participant 2256); 1.458 in data set [1] (participant 2750). In data set [1] (participant 5557), this compound showed an LLTR/TAR of 1.09. For the same compound, the PolyA/LLTR in data set [1] (participant 150b) is listed as 0.0721; in data set [1] (participant 1379), 0; in data set [1] (participant 1713), 0.35; in data set [1] (participant 2147b) it was 0; in data set [1] (participant 2256) it was 0.2174; in data set [1] (participant 2750), 1.811. In addition, the PolyA/LLTR in data set [1] (participant 5557) is listed as 0.1459. Further, the TatRev/PolyA in data set [1] (participant 150b) amounted to 1.52; in data set [1] (participant 2256), 3.43; in data set [1] (participant 2750), 0; in data set [1] (participant 5557), 0. In addition, in data set [2] (5μM), the “Cell viability (DMSO αCD3/28 = 100)” value is 119.92 and 93.07 and 93.65 and 100.43 and 91.95 and 100.9 and 116.6.
For the compound `CC(C)[C@]12O[C@H]1[C@@H]1O[C@]13[C@]1(O[C@H]1C[C@H]1C4=C(CC[C@@]13C)C(=O)OC4)[C@@H]2O` [triptolide], the LLTR/TAR in data set [1] (participant 150b) was 0.3514; in data set [1] (participant 2147b) it was 1.135; in data set [1] (participant 2750) it was 14.8232. Besides, the “Cell viability (DMSO αCD3/28 = 100)” value in data set [2] (25-50nM) is 81.87 and 92.51 and 90.83 and 106.88 and 80.32 and 104.1.
